We go through 4 compounds from patent publication US11497212B2, “Substituted thiophenyl uracils, salts thereof and the use thereof as herbicidal agents” (Syngenta Crop Protection AG, priority 2017, dated 2022).

SMILES strings stand for the structures.

Assay type in all cases: in vivo
One data set relates to Triticum aestivum. In words: Crop compatibility post-emergence (greenhouse pot trial). To be noted: application rate 20 g/ha. In short, it runs like this:
(§1)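 Crops grown in sandy loam in greenhouse, sprayed at one-leaf stage (2–3 weeks after sowing) with WP or EC formulations in water plus 0.5% additive, 600 L/ha. Damage scored visually after about 3 weeks versus untreated controls, 0% = like control, 100% = dead.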

A further data set deals with Lolium rigidum. In words: Herbicidal action post-emergence (greenhouse pot trial). To be noted: application rate 20 g/ha, scored visually after about 3 weeks vs untreated controls. In short, it runs like this: (§2)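 Foliar application post-emergence; water volume 600 L/ha, additive 0.5%, dose ≤80 g/ha. Scoring: visual, ~3 wk, relative to untreated (0–100%).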
The next data set has as its system Amaranthus retroflexus. The description is as above. To be noted: application rate 20 g/ha, scored visually after about 3 weeks vs untreated controls. In short, it runs like this:
as §2

The next data set has as its system Matricaria inodora. The data set is described as above. To be noted: application rate 20 g/ha, scored visually after about 3 weeks vs untreated controls. A digest of the protocol: as §2
The next data set deals with Pharbitis purpurea. The data set is described as above. To be noted: application rate 20 g/ha. A digest of the protocol:
as §2

Another data set has as its system Abutilon theophrasti. Described as above. To be noted: application rate 20 g/ha, scored visually after about 3 weeks vs untreated controls. A digest of the protocol: as §2
A further data set has as its system Echinochloa crus-galli. Described as above. To be noted: application rate 20 g/ha, scored visually after about 3 weeks vs untreated controls. A digest of the protocol: as §2
For a further data set, the system named is Polygonum convolvulus. The description is as above. To be noted: application rate 20 g/ha, scored visually after about 3 weeks vs untreated controls. In short, it runs like this: as §2
In another data set the test system is Digitaria sanguinalis. Described as above. To be noted: application rate 20 g/ha. In short, it runs like this:
as §2

In a further data set the test system is Stellaria media. Described as above. To be noted: application rate 20 g/ha, scored visually after about 3 weeks vs untreated controls. A digest of the protocol: as §2
The test system of the next data set is Viola tricolor. Described as above. To be noted: application rate 20 g/ha. In short, it runs like this: as §2
Another data set has as its system Veronica persica. The data set is described as above. To be noted: application rate 20 g/ha. In short, it runs like this:
as §2

Another data set concerns Setaria viridis. The description is as above. To be noted: application rate 20 g/ha, scored visually after about 3 weeks vs untreated controls. In short, it runs like this:
as §2

Another data set has as its system Glycine max. Description: Crop compatibility post-emergence (greenhouse pot trial). In short, it runs like this:
as §1

Another data set deals with Oryza sativa. The data set is described as above. To be noted: application rate 20 g/ha. In short, it runs like this:
as §1

Another data set relates to Zea mays. The data set is described as above. A digest of the protocol:
as §1

In the next data set the test system is Alopecurus myosuroides. Description: Herbicidal action post-emergence (greenhouse pot trial). To be noted: application rate 20 g/ha, scored visually after about 3 weeks vs untreated controls. A digest of the protocol: as §2

For `CCC(C)C(Sc1cc(-n2c(=O)cc(C(F)(F)F)n(C)c2=O)c(F)cc1Cl)C(=O)NCC1CCCO1` (stereo not shown) [I.5-221], in the data set on Triticum aestivum, the “Triticum aestivum (Efficacy in %)” value is 20%. For the same compound, the “Lolium rigidum (Efficacy in %)” value in the data set on Lolium rigidum is 80%. Further, in the data set with Amaranthus retroflexus, the “Amaranthus retroflexus (Efficacy in %)” value is reported as 100%. Further, the “Matricaria inodora (Efficacy in %)” value with Matricaria inodora was found to be 100%. For the same compound, the “Pharbitis purpurea (Efficacy in %)” value with Pharbitis purpurea stood at 100%. Further, in the data set on Abutilon theophrasti, the “Abutilon theophrasti (Efficacy in %)” value turned out to be 100%. Also, in the data set on Echinochloa crus-galli, the “Echinochloa crus-galli (Efficacy in %)” value worked out at 80%. The “Polygonum convolvulus (Efficacy in %)” value in the data set with Polygonum convolvulus was determined as 100%. The “Digitaria sanguinalis (Efficacy in %)” value in the data set on Digitaria sanguinalis is 80%. Besides, in the data set with Stellaria media, the “Stellaria media (Efficacy in %)” value worked out at 90%. Besides, the “Viola tricolor (Efficacy in %)” value with Viola tricolor is reported as 100%. For the same compound, the “Veronica persica (Efficacy in %)” value with Veronica persica was 100%. For the same compound, in the data set with Setaria viridis, the “Setaria viridis (Efficacy in %)” value is on record as 100%.

On to `CCC(Sc1cc(-n2c(=O)c(C)c(C(F)(F)F)n(C)c2=O)c(F)cc1Cl)C(=O)OCC1CCOC1` (stereo not shown) [I.12-72, Tetrahydrofuran-3-ylmethyl 2-({2-chloro-4-fluoro-5-[3,5-dimethyl-2,6-dioxo-4-(trifluoromethyl)-3,6-dihydropyrimidin-1(2H)-yl]phenyl}sulfanyl)butanoate], for which the “Glycine max (Efficacy in %)” value in the data set on Glycine max (application rate 5 g/ha) is recorded as 20%. Moreover, the “Oryza sativa (Efficacy in %)” value in the data set with Oryza sativa is 20%. Moreover, in the data set on Zea mays (application rate 5 g/ha), the “Zea mays (Efficacy in %)” value is reported as 0%. Besides, the “Triticum aestivum (Efficacy in %)” value in the data set on Triticum aestivum turned out to be 0%. In addition, the “Amaranthus retroflexus (Efficacy in %)” value in the data set with Amaranthus retroflexus is reported as 100%. Moreover, the “Matricaria inodora (Efficacy in %)” value in the data set with Matricaria inodora is 100%. Moreover, in the data set on Abutilon theophrasti, the “Abutilon theophrasti (Efficacy in %)” value is listed as 100%. Besides, the “Echinochloa crus-galli (Efficacy in %)” value in the data set on Echinochloa crus-galli is listed as 100%. The “Polygonum convolvulus (Efficacy in %)” value with Polygonum convolvulus was 100%. Besides, the “Stellaria media (Efficacy in %)” value in the data set on Stellaria media is given as 100%. In the data set with Viola tricolor, the “Viola tricolor (Efficacy in %)” value stood at 100%. In the data set on Veronica persica, the “Veronica persica (Efficacy in %)” value is listed as 100%.

As to `Cc1c(C(F)(F)F)n(C)c(=O)n(-c2cc(SC(CC(C)C)C(=O)OCC3CCCO3)c(Cl)cc2F)c1=O` (stereo not shown) [I.14-71], the “Glycine max (Efficacy in %)” value with Glycine max (application rate 20 g/ha) is reported as 0%. Also, the “Oryza sativa (Efficacy in %)” value in the data set with Oryza sativa is 0%. Moreover, the “Zea mays (Efficacy in %)” value with Zea mays (application rate 20 g/ha) is 0%. The “Triticum aestivum (Efficacy in %)” value in the data set on Triticum aestivum is 0%. The “Amaranthus retroflexus (Efficacy in %)” value with Amaranthus retroflexus is 100%. Besides, the “Pharbitis purpurea (Efficacy in %)” value with Pharbitis purpurea came out at 100%. Moreover, the “Abutilon theophrasti (Efficacy in %)” value with Abutilon theophrasti was 100%. The “Veronica persica (Efficacy in %)” value in the data set on Veronica persica turned out to be 100%.

Turning to `CC(C)C(Sc1cc(-n2c(=O)cc(C(F)(F)F)n(C)c2=O)c(F)cc1Cl)C(=O)NCC1CCCO1` (stereo not shown) [I.6-221, 2-({2-Chloro-4-fluoro-5-[3-methyl-2,6-dioxo-4-(trifluoromethyl)-3,6-dihydropyrimidin-1(2H)-yl]phenyl}sulfanyl)-3-methyl-N-(tetrahydrofuran-2-ylmethyl)butanamide], the “Lolium rigidum (Efficacy in %)” value in the data set on Lolium rigidum was 80%. Further, the “Amaranthus retroflexus (Efficacy in %)” value in the data set on Amaranthus retroflexus worked out at 100%. Moreover, the “Matricaria inodora (Efficacy in %)” value in the data set with Matricaria inodora is reported as 100%. The “Pharbitis purpurea (Efficacy in %)” value in the data set with Pharbitis purpurea turned out to be 100%. Also, the “Abutilon theophrasti (Efficacy in %)” value in the data set with Abutilon theophrasti turned out to be 100%. Moreover, the “Echinochloa crus-galli (Efficacy in %)” value in the data set on Echinochloa crus-galli was 80%. In addition, the “Polygonum convolvulus (Efficacy in %)” value in the data set with Polygonum convolvulus turned out to be 100%. In addition, the “Digitaria sanguinalis (Efficacy in %)” value in the data set with Digitaria sanguinalis was determined as 100%. In addition, the “Stellaria media (Efficacy in %)” value in the data set with Stellaria media came out at 80%. Further, the “Viola tricolor (Efficacy in %)” value in the data set with Viola tricolor came out at 100%. Further, the “Alopecurus myosuroides (Efficacy in %)” value in the data set on Alopecurus myosuroides was determined as 90%. Further, the “Veronica persica (Efficacy in %)” value in the data set with Veronica persica came to 100%. The “Setaria viridis (Efficacy in %)” value with Setaria viridis is recorded as 100%.
